According to patent US20260274819A1, “ULK1 INHIBITOR, PREPARATION METHOD THEREFOR AND USE THEREOF” (DOVETREE MEDICINES UNUS, INC., priority 2023, published 2026):

Legend:
[1] = target: T1, ULK1 (Homo sapiens, UniProt O75385); assay: Inhibition of ULK1 protein activity (ADP-Glo method); assay type: biochemical; conditions: ULK1 enzyme, ATP and MBP substrate, 60 min room temperature
T1 construct: purchased Promega V3521
T1 sequence (O75385 1-649 limits assumed): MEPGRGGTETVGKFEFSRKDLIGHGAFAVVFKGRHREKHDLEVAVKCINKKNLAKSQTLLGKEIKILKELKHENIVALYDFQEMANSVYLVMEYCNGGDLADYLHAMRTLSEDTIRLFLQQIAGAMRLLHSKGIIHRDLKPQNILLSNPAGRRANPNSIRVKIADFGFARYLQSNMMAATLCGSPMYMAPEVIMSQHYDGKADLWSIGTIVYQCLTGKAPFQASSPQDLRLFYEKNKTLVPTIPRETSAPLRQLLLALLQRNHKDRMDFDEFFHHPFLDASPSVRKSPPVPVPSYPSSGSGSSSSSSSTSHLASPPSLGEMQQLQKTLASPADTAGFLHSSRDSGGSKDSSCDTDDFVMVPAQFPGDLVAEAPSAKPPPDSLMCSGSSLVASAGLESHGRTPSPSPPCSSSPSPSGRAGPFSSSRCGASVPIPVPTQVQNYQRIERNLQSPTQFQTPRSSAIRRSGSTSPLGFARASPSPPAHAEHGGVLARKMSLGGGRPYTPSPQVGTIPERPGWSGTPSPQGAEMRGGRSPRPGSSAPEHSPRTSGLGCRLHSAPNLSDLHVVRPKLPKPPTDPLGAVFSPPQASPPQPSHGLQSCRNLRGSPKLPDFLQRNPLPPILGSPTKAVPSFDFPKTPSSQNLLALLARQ
Experimental: In this experiment, the inhibitory effect of a compound on the phosphorylation function of ULK1 was detected by ADP-Glo method. The inhibitory effect of the compound of the present disclosure on the ULK1 target was evaluated based on IC50.
Compound formulation: Using an ECHO (Beckman, ECHO650), the compound was serially diluted 3-fold in DMSO in a 384-well plate (PE, 6007290). A total of 10 concentration points were set, with the maximum concentration of the compound being 10 μM, and 50 nL per well. Positive control wells and negative control wells were added with 50 nL DMSO, respectively.
Reaction process: A 32 nM of ULK1 (Promega, V3521) solution was formulated, and 2.5 μL/well was transferred to the compound test wells and the negative control wells (NC). 2.5 μL/well of 1× Assay buffer was added to the positive control wells (PC). A mixed solution of 100 μM of ATP and 1.86 μM of MBP was formulated, and 2.5 μL/well was transferred to the reaction plate. After centrifugation, the reaction was initiated and incubated at room temperature for 60 min. After the reaction was completed, 5 μL/well of ADP-Glo Reagent (Promega, V9102) was added to the reaction plate. After centrifugation, the reaction was incubated at room temperature for 40 minutes. Finally, 10 μL/well of Kinase Detection Buffer was added, followed by centrifugation and incubation at room temperature for 30 min. The chemiluminescence value was read using Envision (PE, Envision2105).
Assay buffer: a reaction buffer; and Kinase Detection buffer: a detection buffer, both were taken from the ADP-Glodetection kit, purchased from Promega, model V9102. 3. Data analysis
The inhibition ratio of a compound on ULK1 activity was calculated using the following formula:
Inhibition ratio=(sample signal value−negative control signal value)/(positive control signal value−negative control signal value)×100%. The dose-effect curve was fitted using the log(inhibitor) vs. response -Variable slope of the analysis software GraphPad Prism 8, thereby affording the IC50 value of each compound for enzyme activity.

[2] = system: ATG13 phosphorylation level in MIA PaCa-2 cells; assay: Inhibition of ATG13 phosphorylation level in MIA PaCa-2 cells (pATG13 ELISA); assay type: cell-based; conditions: Homo sapiens, Torin1 100 nM, 24 h incubation, Phospho-Atg13 (ser355)
Experimental: The inhibitory effect of the compound of the present disclosure on ULK1 was evaluated by testing the inhibitory effect of the compound of the present disclosure on ATG13 phosphorylation level in MIA PaCa-2 cells.
MIA PaCa-2 cells (ATCC, CRM-CRL-1420) were cultured in a complete medium, namely, a DMEM medium (Gibco, 11965-092) containing 10% fetal bovine serum (Corning, 35-081-CV), 2.5% horse serum (Gibco, 16050-122) and 1% double antibody (Gibco, 15140-122). The experiments were performed according to the requirements of the kit (Cell Signaling Technology, 17208C).
Cell plating: MIA PaCa-2 at 80% growth confluence were digested, diluted with the complete medium, and added to a 96-well cell culture plate (Costar, 3596) at 20,000 cells per well, with a volume of 90 μL.
Compound incubation: 5 μL of Torin1 and 5 μL of a serially diluted compound were added to each well so that the highest concentration of the compound in the reaction system was 10 μM. 5-fold serial dilution with 8 concentrations was performed, and the final concentration of Torin1 was 100 nM. The DMSO content in the system was 0.1%. The reaction plate was placed in an incubator at 37° C. in 5% CO2, and was incubated for 24 h. 10 μL of Torin1 was added to the negative control wells (NC) to a final concentration of 100 nM, with a DMSO content of 0.1%.
Reaction detection: After the incubation was completed, the cell plate was washed with a pre-cooled DPBS (Corning, 21-031-CVC) to wash away the compound and medium. 50 μL of pre-cooled cell lysis solution was added to each well, incubated on ice for 10 min. The cell plate was centrifuged, and the supernatant was transferred to an ELISA reaction plate. Simultaneously, 50 μL of Phospho-Atg13 (ser355) rabbit detection antibody was added, followed by incubation at room temperature under shaking for 60 min. After the incubation was completed, the reaction plate was washed with a washing solution for 4 times. 100 μL of TMB substrate was added for color development reaction, followed by incubation under shaded conditions with shaking for 15 min. Finally, 100 μL of stop solution was added to each well. The reaction was terminated by shaking for 10 s, and the absorbance value at 450 nm and 560 nm were collected within 10 min using Envision (Perkin Elmer, EnVision 2105).
The inhibition ratio was calculated by subtracting the absorbance value at […] from the absorbance value at 450 nm for each well. The inhibition ratio formula is as follows: inhibition ratio=(sample signal value−negative control signal value)/(positive control signal value -negative control signal value)×100%.
The dose-effect curve was fitted using the log (inhibitor) vs. response -Variable slope of Graphpad Prism8, thereby affording the IC50 value of each compound for inhibiting ATG13 phosphorylation level.

[3] = system: HEK293 GFP-LC3 stably transfected cells; assay: Inhibition of autophagy level in HEK293 GFP-LC3 stably transfected cells (autophagic flux); assay type: cell-based; conditions: Homo sapiens, Torin1 100 nM, 24 h, GFP fluorescence
Experimental: The inhibitory effect of the compound of the present disclosure on intracellular autophagy was evaluated by testing the impact of the compound of the present disclosure on the fluorescence intensity of HEK293 GFP-LC3 stably transfected cells.
HEK293 GFP-LC3 stably transfected cells (HEK293, ATCC, CRL-1573) were cultured in a complete medium, namely, a DMEM medium (Gibco, 11965-092) containing 10% fetal bovine serum (Corning, 35-081-CV), 1% double antibody (Gibco, 15140-122) and 1 μg/mL of Puromycin (Invitrogen-A1113803).
Cell plating: HEK293 GFP-LC3 stably transfected cells at 80% growth confluence were digested, diluted with a medium free of Puromycin, and added to a 96-well cell culture plate (Geriner, 655090) at 12,000 cells per well, with a volume of 90 μL.
Compound incubation: 5 μL of Torin1 and 5 μL of a serially diluted compound were added to each well so that the highest concentration of the compound in the reaction system was 10 μM. 3-fold serial dilution with 8 concentrations was performed, and the final concentration of Torin1 was 100 nM. The DMSO content in the system was 0.1%. The positive control wells (PC) contain DMSO at a final concentration of 0.1%, and the negative control wells (NC) contain 100 nM of Torin1 with 0.1% of DMSO. The reaction plate was placed in an incubator at 37° C. in 5% CO2, and was incubated for 24 h.
Cell staining and fixation: The cell plate was taken out, and 10 μL of Hochest33342 nuclear staining reagent (Thermo, H1399) was added to each well, followed by incubation at 37° C. in 5% CO2 for 30 min. After the incubation was completed, the cell supernatant was discarded, and 100 μL of pre-cooled 4% paraformaldehyde was added to each well to fix the cells for 15 min. Then, the fixative was discarded, and 100 μL of PBS was added to each well. Images were captured for analysis using a high-content cell imaging analyzer (PE, Operetta CLS), and GFP fluorescence signals were collected for data processing.
The average GFP fluorescence signal intensity in the reaction wells was collected for the calculation of the inhibition ratio:
The dose-effect curve was fitted using the log(inhibitor) vs. response -Variable slope of Graphpad Prism8, thereby affording the IC50 value of each compound for inhibiting autophagy level in HEK293 GFP-LC3 stably transfected cells.

Row | SMILES | IC50 [1] | IC50 [2] | IC50 [3]
1 | CN1CCc2cc(Nc3ncc(C(F)(F)F)c(N4CCN(C)C(=O)C4)n3)ccc2C1 [Example 15] | < 100 nM | 100 to 1000 nM | 100 to 1000 nM
2 | CN1CCN(c2ccc(Nc3ncc(C(F)(F)F)c(N4CCN(C)C(=O)C4)n3)c(C3CC3)c2)CC1 [Example 5] | < 100 nM | > 1000 nM | > 1000 nM
3 | CN1CCN(c2ccc(Nc3ncc(C(F)(F)F)c(N4CCC5(CCN(C)C5)CC4)n3)c(C3CC3)c2)CC1 [Example 19] | < 100 nM | > 1000 nM | 100 to 1000 nM
4 | CN1CCN(c2ccc(Nc3ncc(C(F)(F)F)c(NC4CCN(C(=O)C5CCC5)CC4)n3)c(C3CC3)c2)CC1 [Example 20] | < 100 nM | > 1000 nM | > 1000 nM
5 | CN1CCN(c2ccc(Nc3ncc(C(F)(F)F)c(N4CCC(n5cccn5)CC4)n3)c(C3CC3)c2)CC1 [Example 14] | < 100 nM | < 100 nM | > 1000 nM
6 | CN1CCN(c2ccc(Nc3ncc(C(F)(F)F)c(OCCCN4CCCCC4=O)n3)c(C3CC3)c2)CC1 [Example 1] | < 100 nM | 100 to 1000 nM | 100 to 1000 nM

Further lines, with some results ahead:

Row | IC50 [1] | IC50 [2] | SMILES | IC50 [3]
7 | < 100 nM | > 1000 nM | CN1CCN(c2ccc(Nc3ncc(C(F)(F)F)c(N4CCC5(CCN(C)CC5)CC4)n3)c(C3CC3)c2)CC1 [Example 51] | 100 to 1000 nM
8 | < 100 nM | 100 to 1000 nM | CN1CCN(c2ccc(Nc3ncc(C(F)(F)F)c(OCCCn4cccn4)n3)c(C3CC3)c2)CC1 [Example 29] | 100 to 1000 nM
9 | < 100 nM | < 100 nM | CN1Cc2cc(Nc3ncc(C(F)(F)F)c(OCCCN4CCCCC4=O)n3)ccc2C2(CC2)C1 [Example 49] | < 100 nM
10 | < 100 nM | > 1000 nM | CN1CCN(c2ccc(Nc3ncc(C(F)(F)F)c(NCCCn4cccn4)n3)c(C3CC3)c2)CC1 [Example 30] | > 1000 nM
11 | < 100 nM | 100 to 1000 nM | CN1CCN(c2ccc(Nc3ncc(C(F)(F)F)c(N4CC5(CN(C)C5)C4)n3)c(C3CC3)c2)CC1 [Example 24] | 100 to 1000 nM
12 | < 100 nM | 100 to 1000 nM | CN1CCN(c2ccc(Nc3ncc(C(F)(F)F)c(N[C@H]4CC[C@@H](n5cccn5)CC4)n3)c(C3CC3)c2)CC1 [Example 32] | > 1000 nM
13 | < 100 nM | 100 to 1000 nM | CN1CCN(c2ccc(Nc3ncc(C(F)(F)F)c(N4CCC5(CCN(C)C5)C4)n3)c(C3CC3)c2)CC1 (stereo not drawn) [Example 26] | > 1000 nM
14 | < 100 nM | 100 to 1000 nM | CN1CCN(c2ccc(Nc3ncc(C(F)(F)F)c(N4CCC5(CCN(C)CC5)C4)n3)c(C3CC3)c2)CC1 [Example 53] | > 1000 nM
